Test results as given in patent publication US9290459B1, “Substituted bicyclic dihydropyrimidinones and their use as inhibitors of neutrophil elastase activity” (Boehringer Ingelheim International GmbH, priority 2013, dated 2016).
Values after ≈ are worked out from the molar mass of the structure shown.

biological target: Human neutrophil elastase (Homo sapiens (Human), UniProt P08246); assay: Human Neutrophil Elastase Assay; type: biochemical; details: human neutrophil elastase, substrate MeOSuc-Ala-Ala-Pro-Val-AMC 250 μM, pH 7.5; read-out: IC50
Sequence (P08246 30-247): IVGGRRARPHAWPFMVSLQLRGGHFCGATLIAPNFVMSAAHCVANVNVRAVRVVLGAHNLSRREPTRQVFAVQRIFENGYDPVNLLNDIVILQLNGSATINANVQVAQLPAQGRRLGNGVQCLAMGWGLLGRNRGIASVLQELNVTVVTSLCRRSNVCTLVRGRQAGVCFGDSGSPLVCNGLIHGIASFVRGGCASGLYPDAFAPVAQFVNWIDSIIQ

Going from CS(=O)(=O)c1cc(C#N)ccc1C1C2=C(CCC2=O)N(c2ccnc(C(F)(F)F)c2)C(=O)N1S(C)(=O)=O (stereo not shown) [Example 39, 3-(Methylsulfonyl)-4-(3-(methylsulfonyl)-2,5-dioxo-1-(2-(trifluoromethyl)pyridin-4-yl)-2,3,4,5,6,7-hexahydro-1H-cyclopenta[d]pyrimidin-4-yl)benzonitrile] to CS(=O)(=O)N1C(=O)N(c2ccnc(C(F)(F)F)c2)C2=C(C(=O)CC2)C1c1ccc(C#N)cc1 (stereo not shown) [Example 57, 4-(3-(Methylsulfonyl)-2,5-dioxo-1-(2-(trifluoromethyl)pyridin-4-yl)-2,3,4,5,6,7-hexahydro-1H-cyclopenta[d]pyrimidin-4-yl)benzonitrile], the IC50 rises from 7 nM to 34.9 nM (5-fold). The first is the more potent here.

Compared with N#Cc1ccc(C2C3=C(CCC3=O)N(c3cccc(C(F)(F)F)c3)C(=O)N2C(N)=O)cc1 (stereo not shown) [Example 40, 4-(4-Cyanophenyl)-2,5-dioxo-1-(3-(trifluoromethyl)phenyl)-4,5,6,7-tetrahydro-1H-cyclopenta[d]pyrimidine-3(2H)-carboxamide], CC(C)(O)CNC(=O)N1C(=O)N(c2cccc(C(F)(F)F)c2)C2=C(C(=O)CC2)C1c1ccc(C#N)cc1 (stereo not shown) [Example 41, 4-(4-Cyanophenyl)-N-(2-hydroxy-2-methylpropyl)-2,5-dioxo-1-(3-(trifluoromethyl)-phenyl)-4,5,6,7-tetrahydro-1H-cyclopenta[d]pyrimidine-3(2H)-carboxamide] is 1.6-fold lower in IC50: 2.2 nM for the first, 1.4 nM for the second. The second is the more potent here.

Compared with CC(C)(O)CNC(=O)N1C(=O)N(c2cccc(C(F)(F)F)c2)C2=C(C(=O)CC2)[C@@H]1c1ccc(C#N)cc1 [Example 41B, (S)-4-(4-Cyanophenyl)-N-(2-hydroxy-2-methylpropyl)-2,5-dioxo-1-(3-(trifluoro-methyl)phenyl)-4,5,6,7-tetrahydro-1H-cyclopenta[d]pyrimidine-3(2H)-carboxamide], N#Cc1ccc(C2C3=C(CCC3=O)N(c3cccc(C(F)(F)F)c3)C(=O)N2C(=O)NC2CC[S+]([O-])CC2)cc1 (stereo not shown) [Example 43, 4-(4-Cyanophenyl)-2,5-dioxo-N-(1-oxo-hexahydro-1λ^4-thiopyran-4-yl)-1-(3-(trifluoro-methyl)phenyl)-4,5,6,7-tetrahydro-1H-cyclopenta[d]pyrimidine-3(2H)-carboxamide] is lower in IC50: 40.4 nM for the first, less than 1 nM for the second. The second is the more potent here.

N#Cc1ccc(C2C3=C(CCC3=O)N(c3cccc(C(F)(F)F)c3)C(=O)N2C(=O)NC2CCS(=N)(=O)CC2)cc1 (stereo not shown) [Example 44, 4-(4-Cyanophenyl)-2,5-dioxo-N-(1-imino-1-oxo-hexahydro-1λ^6-thiopyran-4-yl)-1-(3-(trifluoromethyl)phenyl)-4,5,6,7-tetrahydro-1H-cyclopenta[d]pyrimidine-3(2H)-carboxamide] and CS(=O)(=O)c1cc(C#N)ccc1[C@@H]1C2=C(CCC2=O)N(c2cccc(C(F)(F)F)c2)C(=O)N1C(=O)NC1CCOCC1 [Example 47.15] cannot be ordered by IC50: less than 1 nM for the first, less than 1 nM for the second.

CS(=O)(=O)c1cc(C#N)ccc1[C@@H]1C2=C(CCC2=O)N(c2cccc(C(F)(F)F)c2)C(=O)N1C(=O)NCC#N [Example 47.3] and CS(=O)(=O)c1cc(C#N)ccc1[C@@H]1C2=C(CCC2=O)N(c2cccc(C(F)(F)F)c2)C(=O)N1C(=O)NCC1(O)CCC1 [Example 47.17] cannot be ordered by IC50: less than 1 nM for the first, less than 1 nM for the second.

CC(C)(CO)NC(=O)N1C(=O)N(c2cccc(C(F)(F)F)c2)C2=C(C(=O)CC2)[C@H]1c1ccc(C#N)cc1S(C)(=O)=O [Example 47.14] and CCS(=O)(=O)c1cc(C#N)ccc1C1C2=C(CCC2=O)N(c2cccc(C(F)(F)F)c2)C(=O)N1C(=O)NC (stereo not shown) [Example 50.7] cannot be ordered by IC50: less than 1 nM for the first, less than 1 nM for the second.

CS(=O)(=O)c1cc(C#N)ccc1[C@@H]1C2=C(CCC2=O)N(c2cccc(C(F)(F)F)c2)C(=O)N1C(=O)NCC1CC(O)C1 (stereo partly shown) [Example 47.16] and CS(=O)(=O)c1cc(C#N)ccc1[C@@H]1C2=C(CCC2=O)N(c2cccc(C(F)(F)F)c2)C(=O)N1C(=O)N[C@H]1CC[C@H](O)C1 [Example 48.4] cannot be ordered by IC50: less than 1 nM for the first, less than 1 nM for the second.

CS(=O)(=O)c1cc(C#N)ccc1[C@@H]1C2=C(CCC2=O)N(c2cccc(C(F)(F)F)c2)C(=O)N1C(=O)N[C@H]1CCCC[C@@H]1O [Example 47.21] and CS(=O)(=O)c1cc(C#N)ccc1[C@@H]1C2=C(CCC2=O)N(c2cccc(C(F)(F)F)c2)C(=O)N1C(=O)NC1C2CC1C2 (stereo partly shown) [Example 48.2] cannot be ordered by IC50: less than 1 nM for the first, less than 1 nM for the second.

Going from CNC(=O)N1C(=O)N(c2cccc(C(F)(F)F)c2)C2=C(C(=O)CC2)C1c1ccc(C#N)cc1F (stereo not shown) [Example 49, 4-(4-Cyano-2-fluorophenyl)-N-methyl-2,5-dioxo-1-(3-(trifluoromethyl)phenyl)-4,5,6,7-tetrahydro-1H-cyclopenta[d]pyrimidine-3(2H)-carboxamide] to CNC(=O)N1C(=O)N(c2cccc(C(F)(F)F)c2)C2=C(C(=O)CC2)[C@@H]1c1ccc(C#N)cc1F [Example 49B, (R)-4-(4-Cyano-2-fluorophenyl)-N-methyl-2,5-dioxo-1-(3-(trifluoromethyl)phenyl)-4,5,6,7-tetrahydro-1H-cyclopenta[d]pyrimidine-3(2H)-carboxamide], the IC50 rises from 1.8 nM to 173 nM (96-fold).

Compared with CCNC(=O)N1C(=O)N(c2cccc(C(F)(F)F)c2)C2=C(C(=O)CC2)C1c1ccc(C#N)cc1F (stereo not shown) [Example 49.1], CCNC(=O)N1C(=O)N(c2cccc(C(F)(F)F)c2)C2=C(C(=O)CC2)C1c1ccc(C#N)cc1Cl (stereo not shown) [Example 51.2] is lower in IC50: 1.2 nM for the first, less than 1 nM for the second.

Compared with COCCNC(=O)N1C(=O)N(c2cccc(C(F)(F)F)c2)C2=C(C(=O)CC2)C1c1ccc(C#N)cc1F (stereo not shown) [Example 49.2], CNC(=O)N1C(=O)N(c2cccc(C(F)(F)F)c2)C2=C(C(=O)CC2)C1c1ccc(C#N)cc1C (stereo not shown) [Example 50.2] is lower in IC50: 1.3 nM for the first, less than 1 nM for the second.

CNC(=O)N1C(=O)N(c2cccc(C(F)(F)F)c2)C2=C(C(=O)CC2)C1c1ccc(C#N)cc1Cl (stereo not shown) [Example 50.4] and CNC(=O)N1C(=O)N(c2cccc(C(F)(F)F)c2)C2=C(C(=O)CC2)C1c1ccc(C#N)cc1Br (stereo not shown) [Example 50.6] are the same in IC50: 1.2 nM for the first, 1.2 nM for the second.

CNC(=O)N1C(=O)N(c2cccc(C(F)(F)F)c2)C2=C(C(=O)CC2)C1c1ccc(C#N)cc1[S+](C)[O-] (stereo not shown) [Example 50.5] and CCNC(=O)N1C(=O)N(c2cccc(C(F)(F)F)c2)C2=C(C(=O)CC2)C1c1ccc(C#N)cc1[S+](C)[O-] (stereo not shown) [Example 51.4] cannot be ordered by IC50: less than 1 nM for the first, less than 1 nM for the second.

CCNC(=O)N1C(=O)N(c2cccc(C(F)(F)F)c2)C2=C(C(=O)CC2)C1c1ccc(C#N)cc1S(=O)(=O)CC (stereo not shown) [Example 51.3] and CCNC(=O)N1C(=O)N(c2cccc(C(F)F)c2)C2=C(C(=O)CC2)C1c1ccc(C#N)cc1S(C)(=O)=O (stereo not shown) [Example 53.2] cannot be ordered by IC50: less than 1 nM for the first, less than 1 nM for the second.

First: N#Cc1ccc(C2C3=C(CCC3=O)N(c3cccc(C(F)F)c3)C(=O)N2C(=O)NCCCO)cc1 (stereo not shown) [Example 52, 4-(4-Cyanophenyl)-1-(3-(difluoromethyl)phenyl)-N-(3-hydroxypropyl)-2,5-dioxo-4,5,6,7-tetrahydro-1H-cyclopenta[d]pyrimidine-3(2H)-carboxamide]
Second: N#Cc1ccc([C@H]2C3=C(CCC3=O)N(c3cccc(C(F)F)c3)C(=O)N2C(=O)NCCCO)cc1 [Example 52B, (S)-4-(4-Cyanophenyl)-1-(3-(difluoromethyl)phenyl)-N-(3-hydroxypropyl)-2,5-dioxo-4,5,6,7-tetrahydro-1H-cyclopenta[d]pyrimidine-3(2H)-carboxamide]
The IC50 of the first is lower: less than 1 nM for the first, 619 nM for the second.

COCCNC(=O)N1C(=O)N(c2cccc(C(F)F)c2)C2=C(C(=O)CC2)C1c1ccc(C#N)cc1 (stereo not shown) [Example 52.4] and CNC(=O)N1C(=O)N(c2cccc(C(F)F)c2)C2=C(C(=O)CC2)C1c1ccc(C#N)cc1S(C)(=O)=O (stereo not shown) [Example 53.1] cannot be ordered by IC50: less than 1 nM for the first, less than 1 nM for the second.

In the case of CC(C)(O)CNC(=O)N1C(=O)N(c2cccc(C(F)F)c2)C2=C(C(=O)CC2)C1c1ccc(C#N)cc1S(C)(=O)=O (stereo not shown) [Example 53.5], the IC50 is reported as less than 1 nM.

system: not listed separately; assay: Metabolic stability with human liver microsomes; type: in vitro ADME; details: human, microsomes, pH 7.6

For CNC(=O)N1C(=O)N(c2cccc(C(F)(F)F)c2)C2=C(C(=O)CC2)C1c1ccc(C#N)cc1OC (stereo not shown) [Example 50.3], the half-life at 1 μM was greater than 2.17 h.

same assay, conditions: pooled human liver microsomes, 1 mg/ml protein, 1 μM test compound, 37° C., NADPH

For C[S+]([O-])CCNC(=O)N1C(=O)N(c2cccc(C(F)(F)F)c2)C2=C(C(=O)CC2)C1c1ccc(C#N)cc1 (stereo not shown) [Example 7.6], the “t1/2 INVITRO” value was greater than 2.17 h.
In the case of CS(=O)(=O)c1cc(C#N)ccc1C1C2=C(CCC2=O)N(c2cccc(C(F)(F)F)c2)C(=O)N1CC(=O)N1CC2CC2C1 (stereo not shown) [Example 22.4], the “t1/2 INVITRO” value is reported as greater than 2.17 h.

In the case of CS(=O)(=O)c1cc(C#N)ccc1C1C2=C(CCC2=O)N(c2cccc(C(F)(F)F)c2)C(=O)N1CCCO (stereo not shown) [Example 24.1], the “t1/2 INVITRO” value is reported as 1.67 h.

system: not listed separately; assay: Aqueous solubility; type: physicochemical; details: McIlvaine buffer pH 6.8, 2.5% DMSO, 24 h shaking
Protocol: Assay for Determination of Aqueous Solubility […] After 24 h of shaking, the solutions or suspensions are filtered and analyzed by LC-UV. The amount dissolved in buffer is compared to the amount dissolved in the acetonitrile/water (1/1) solution.

CN(C)CCNC(=O)N1C(=O)N(c2cccc(C(F)(F)F)c2)C2=C(C(=O)CC2)C1c1ccc(C#N)cc1 (stereo not shown) [Example 7.5] and C[S+]([O-])CCNC(=O)N1C(=O)N(c2cccc(C(F)(F)F)c2)C2=C(C(=O)CC2)C1c1ccc(C#N)cc1 (stereo not shown) [Example 7.6] are within 1.5-fold of each other in Aqueous solubility: 104 µg/mL for the first, 94 µg/mL for the second.

Going from CN1CC(NC(=O)N2C(=O)N(c3cccc(C(F)(F)F)c3)C3=C(C(=O)CC3)C2c2ccc(C#N)cc2)CC1=O (stereo not shown) [Example 7.9] to CS(=O)(=O)c1cc(C#N)ccc1C1C2=C(CCC2=O)N(c2cccc(C(F)(F)F)c2)C(=O)N1CCCO (stereo not shown) [Example 24.1], the Aqueous solubility falls from 106 µg/mL to 64 µg/mL (1.7-fold).

same assay, conditions: McIlvaine buffer pH 6.8 with 2.5% DMSO, pH 6.8, aqueous buffer, kinetic from dmso stock, McIlvaine buffer pH 6.8, 2.5% DMSO, 24 h shaking

Work on CN1C(=O)N(c2cccc(C(F)(F)F)c2)C2=C(C(=O)CC2)[C@H]1c1ccc(C#N)cc1 [Example 2A, (R)-4-(3-Methyl-2,5-dioxo-1-(3-(trifluoromethyl)phenyl)-2,3,4,5,6,7-hexahydro-1H-cyclopenta[d]pyrimidin-4-yl)benzonitrile] yielded a solubility at 24 h of 70 µg/mL (≈ 170 µM).

system: not listed separately; assay: Drug transport across human Caco-2 cells; type: in vitro ADME; details: human, Caco-2, pH 7.2, Caco-2 monolayers, apical-to-basal, pH 7.2, 37° C.; read-out: PEAB
Excerpt: Assay for Determination of Drug Transport Across Human Caco-2 Cells The assay provides information on the potential of a compound to pass the cell membrane, on the extent of oral absorption as well as on whether the compound is actively transported by uptake and/or efflux transporters. […] The compounds are assigned to permeability/absorption classes by comparison of the AB permeabilities with the AB permeabilities of reference compounds with known in vitro permeability and oral absorption in the human. Identical or similar permeabilities in both transport directions indicate passive permeation, vectorial permeability points to additional active transport mechanisms. […] Active transport is concentration-dependently saturable. Caco-2 cells (1-2*10^5 cells/cm^2 area) are seeded on filter inserts (Costar transwell polycarbonate or PET filters, 0.4 nm pore size) and cultured (DMEM) for 10 to 25 days. […] The transport solution (TL) is applied ici to the apical or basolateral donor side for measuring A-B or B-A permeability (3 filter replicates), respectively. The receiver side contains HTP-4 buffer supplemented with 2% BSA. […] Sampled receiver volumes are replaced with fresh receiver solution.

CN1C(=O)N(c2cccc(C(F)(F)F)c2)C2=C(C(=O)CC2)[C@H]1c1ccc(C#N)cc1 [Example 2A, (R)-4-(3-Methyl-2,5-dioxo-1-(3-(trifluoromethyl)phenyl)-2,3,4,5,6,7-hexahydro-1H-cyclopenta[d]pyrimidin-4-yl)benzonitrile] and CNC(=O)N1C(=O)N(c2cccc(C(F)(F)F)c2)C2=C(C(=O)CC2)C1c1ccc(C#N)cc1OC (stereo not shown) [Example 50.3] are within 1.5-fold of each other in Papp A→B at 10 µM: 87 ×10⁻⁶ cm/s for the first, 72.4 ×10⁻⁶ cm/s for the second.

same assay, conditions: human, Caco-2, pH 7.2, Caco-2 monolayers, basal-to-apical, pH 7.2, 37° C.; read-out: PEBA

CN1C(=O)N(c2cccc(C(F)(F)F)c2)C2=C(C(=O)CC2)[C@H]1c1ccc(C#N)cc1 [Example 2A, (R)-4-(3-Methyl-2,5-dioxo-1-(3-(trifluoromethyl)phenyl)-2,3,4,5,6,7-hexahydro-1H-cyclopenta[d]pyrimidin-4-yl)benzonitrile] and CNC(=O)N1C(=O)N(c2cccc(C(F)(F)F)c2)C2=C(C(=O)CC2)C1c1ccc(C#N)cc1OC (stereo not shown) [Example 50.3] are within 1.5-fold of each other in Papp B→A at 10 µM: 69 ×10⁻⁶ cm/s for the first, 68.1 ×10⁻⁶ cm/s for the second.
